This is an account of results in paper PMC11461078 (Oxidative Medicine and Cellular Longevity, 2024).

Data set [1] has as its system CCF-STTG1 cells. Briefly: Cell viability (MTT) under oxidative stress (200 µM H2O2 pretreatment). It counts as cell-based, human. As to conditions: H2O2 200 μM. On the procedure: In a second set of experiments, the CCF-STTG1 cell line was pretreated with 200 µM H2O2 for 30 min to explore the effects of the combination under oxidative stress conditions compared to the single agents by analysing cell viability, ROS, and NO productions. In addition, inflammatory biomarkers (TNFα and IL-2), BDNF production, and intracellular apoptotic and neurodegenerative markers activated were also analysed by ELISA kit.
A 96-well plate was used to measure cell viability of CCF-STTG1 cells after each stimulation using MTT-based In Vitro Toxicology Assay Kit (Merck Life Science, Milan, Italy), as reported in the literature. After stimulating cells, 1% MTT dye was incubated at 37°C in an incubator with 5% CO2 and 95% humidity, and purple formazan crystals were dissolved in MTT solubilisation solution after 2 hr. In addition, during the quantification, the background interference due to the extract was considered by making an empty sample (without cells but with the treatment), which was subtracted. To assess cell viability, absorbance at 570 nm with 690 nm correction was measured using a spectrometer (Infinite 200 Pro MPlex, Tecan, Männedorf, Switzerland) and compared to the control (0 line, which is 100% viable cells) and expressed in percentage.

The subject of data set [2] is CCF-STTG1 cells. Briefly: ROS production (cytochrome C reduction) under oxidative stress. It counts as cell-based, human. As to conditions: for reduction of ROS production compared to H2O2 200 μM: H2O2 200 μM pretreatment, 24 hr treatment, green tea 100 μM, saffron 25 μM, citicoline 100 μM, trans-R 1 µM, MIX. On the procedure: In a second set of experiments, the CCF-STTG1 cell line was pretreated with 200 μM H2O2 for 30 min to explore the effects of the combination under oxidative stress conditions compared to the single agents by analysing cell viability, ROS, and NO productions. In addition, inflammatory biomarkers (TNFα and IL-2), BDNF production, and intracellular apoptotic and neurodegenerative markers activated were also analysed by ELISA kit. A standard procedure based on cytochrome C reduction on CCF-STTG1 cells quantified superoxide anion release. After treatment, 100 μL of cytochrome C (1 mg/mL, Merck Life Science, Rome, Italy) and 100 μL of superoxide dismutase (0.1 mg/mL, Merck Life Science, Rome, Italy) were added to each sample for 30 min in an incubator. At 550 nm, a spectrophotometer (Infinite 200 […], Männedorf, Switzerland) assessed absorbance in cell culture supernatants. O2 rate was represented as the mean SD (%) of nanomoles per decreased cytochrome C per microgram of protein relative to the control (0 line).

Data set [3] concerns BDNF. The experiment in a line: BDNF quantification ELISA under oxidative stress. As to conditions: H2O2 200 μM. It counts as cell-based, human. On the procedure: (§1) Human BDNF ELISA Kit (Thermo ScientificTM, Waltham, MA, United States) quantified BDNF in CCF-STTG1 cell supernatants following the manufacturer's instructions. Each well received a biotinylated detection antibody, and the plate was incubated at room temperature for 1 hr. After 45 min of HRP-conjugated streptavidin incubation, TMB substrate solution was added for 30 min, and a stop solution terminated the reaction. To calculate BDNF concentration, absorbance was measured at 450 nm using a spectrometer (Infinite 200 Pro MPlex, Tecan, Männedorf, Switzerland) and compared to the standard curve (0.066–16 ng/mL). The data are presented as mean ± SD (%) compared to the untreated control sample. The cells were also given 10 ng/mL BDNF as a positive control.
as §1, with “Elisa” for “ELISA”, “The data are presented as mean ± SD (%) compared to the untreated control sample. The cells were also given 10 ng/mL BDNF as a positive control.” left out

Data set [4] deals with BBB in vitro model (CCF-STTG1 cocultured with HUVEC on Transwells). The note with it: human.
Data set [5] has as its system human. Details: method as in PMID 23403474. As to conditions: 500 mg per day for 2 weeks; cited from earlier work.
The subject of data set [6] is rats. Details: method as in PMID 29470767. As to conditions: tramadol toxicity, 30 mg/kg orally for 28 consecutive days; cited from earlier work.
The subject of data set [7] is pTau. The experiment in a line: Tau (Phospho) [pS199] ELISA under oxidative stress. It counts as cell-based, human. The note with it: H2O2 200 μM pretreatment. On the procedure:
Tau (Pospho) protein was investigated by Tau (Phospho) [[…]] Human ELISA Kit (Thermo ScientificTM, Waltham, MA, USA) on CCF-STTG1 cell lysates. In summary, 100 μL of each sample was added to the plate, incubated at 37°C for 90 min, removed, and washed three times. Next, add 100 μL of detection solution A to each well and incubate at 37°C for 45 min. Post-incubation, wash wells, add 100 μL detection solution B, and incubate at 37°C for 45 min. After adding 90 μL of substrate solution, the plate was incubated at 37°C for 20 min in the dark. The reaction was stopped with 50 μL of stop solution, and the absorbance was measured at 450 nm using a spectrometer (Infinite 200 […], Männedorf, Switzerland). Results are shown as mean SD (%) relative to the control, and concentration is reported in ng/mL by comparing data to the standard curve (15.6-1,000 pg/mL).

Each structure is given as a SMILES string. Like-named read-outs stand apart in the source and are kept apart here.

Consider `OO` [H2O2], for which, in data set [1], the “decrease in cell viability compared to the control” value is given as “about 22%”. Further, the “increase in ROS production compared to the control” value in data set [2] (H2O2 200 μM) was “about 42%”. Moreover, the “reduction of BDNF production vs control” value in data set [3] was ~ 30%.
Turning to `C[N+](C)(C)CCOP(=O)(O)OP(=O)([O-])OC[C@H]1O[C@@H](n2ccc(N)nc2=O)[C@H](O)[C@@H]1O` [citicoline, cytidine diphosphate (CDP)-choline], the “reduction of ROS production compared to H2O2 200 μM” value in data set [2] is “about 37%”. The “Permeability values (Papp)” value is 0.2 ×10⁻⁶ cm/s in data set [4] (4 h), 0.58 ×10⁻⁶ cm/s in data set [4] (12 h) and 0.44 ×10⁻⁶ cm/s in data set [4] (24 h). The “serum malondialdehyde (MDA) levels” value in data set [5] was “significantly decreased”. In addition, the “vigilance, visual working memory, oxidative stress markers compared to placebo” value in data set [5] was “improve human vigilance, visual working memory, and oxidative stress markers”.
Consider `CC(/C=C/C=C(\C)C(=O)O[C@@H]1O[C@H](CO[C@@H]2O[C@H](CO)[C@@H](O)[C@H](O)[C@H]2O)[C@@H](O)[C@H](O)[C@H]1O)=C\C=C\C=C(C)\C=C\C=C(/C)C(=O)O[C@@H]1O[C@H](CO[C@@H]2O[C@H](CO)[C@@H](O)[C@H](O)[C@H]2O)[C@@H](O)[C@H](O)[C@H]1O` [crocin], for which the learning and memory entry in data set [6] was “improved learning and memory”.
Regarding `Oc1ccc(/C=C/c2cc(O)cc(O)c2)cc1` [trans-R, trans-Resveratrol], the “reduction of ROS production compared to H2O2 200 μM” value in data set [2] is recorded as “about 46%”. In addition, the “pTau expression (in words)” value in data set [7] was “inhibits its expression, similar to the MIX”. For the same molecule, the “Permeability values (Papp)” value in data set [4] (4 h) was 0.2 ×10⁻⁶ cm/s; in data set [4] (12 h) it was 0.83 ×10⁻⁶ cm/s; in data set [4] (24 h), 0.53 ×10⁻⁶ cm/s.
